{"source": "paper PMC7367873", "about": "“Dissecting the sequence determinants for dephosphorylation by the catalytic subunits of phosphatases PP1 and PP2A” (Nature Communications, 2020)", "tested_on": "GAB2/GFP-14-3-3β interaction", "assay": "GAB2/14-3-3 binding assay (GFP-14-3-3β pull-down, Western blot)", "parameters": "species or system human", "procedure": "pEGFP(C1)-14-3-3β or pCMV-GAB2-3FLAG was transfected into HeLa Kyoto cells as described in the respective section for 24 h. Cells were incubated with or w/o 20 nM Calyculin A (# 9902 S, Cell Signaling Technology) in complete growth media for 12 min. Cells were washed twice on ice with cold PBS and after addition of 500 µL lysis buffer (100 mM NaCl, 10 mM Tris, 0.1% IGEPAL, 1 mM EDTA, 1 mM EGTA, 20 nM Calyculin A, 1x cOmplete Mini protease inhibitor cocktail (Sigma), 2 mM DTT, 2 mM MnCl2) cells were scraped from plates, lysed by 10 pushes through an injection needle and the insoluble fraction was pelleted by centrifugation (10 min, 10^4 rcf, 4 °C). Supernatants were then subjected to incubation with 1 µM recombinant PP1c (if not indicated otherwise) or buffer for 1 h at 30 °C. […] Next, we subjected samples to immunoprecipitation/pull-down using 25 µL of α-FLAG M2 magnetic bead slurry (Sigma-Aldrich) or an equal volume of bead-coupled α-GFP nanobodies (EMBL PEPcore Core Facility) for 2 h at 4 °C. Beads were then washed three times with lysis buffer and samples were eluted in 1x SDS sample buffer by heating to 95 °C for 10 min and further analyzed by SDS PAGE for 14-3-3/GAB2 association and phosphorylation status of GAB2-pS210.\nFor SDS-PAGE, samples were loaded on NuPAGE™ 4-12% Bis-Tris protein gels (Invitrogen) and gel electrophoresis was performed at 180 V constant in 1x MOPS buffer. Samples were transferred onto CN blotting membranes (0.45 µm, neoLab) by wet blotting. Membranes were stained using Ponceau, followed by blocking with Tris-buffered saline with 0.1% Tween (TBS-T) containing 5% (w/v) non-fat milk for 45 min at room temperature. After three washes (5 min), membranes were then incubated with the following antibodies in TBS-T with 5% BSA overnight at 4 °C: α-GFP (1:2000, Abcam, ab6556), α-GAB2 (1:1000, CST, #3239), α-GAB2-pS210 (1:250, Symansis, customized purification), α-FLAG (1:1000, M2, Sigma-Aldrich, F3165), α-pan14-3-3 (1:500, SCBT, sc-629), α-PP1 (1:1000, SCBT, sc-7482), α-PP2A (1:1000, SCBT, sc-130237) or α-6His (1:2000, Abcam, ab9108). Afterwards blots were washed three times in TBS-T and incubated with goat anti-mouse IgG-peroxidase conjugate (1:2500, Sigma, A0168), donkey anti-rabbit IgG-horseradish peroxidase (HRP) conjugate (1:2500, GE Healthcare, GENA934), or rabbit anti-sheep IgG (H + L) HRP conjugate (1:2500, Thermo Fisher Scientific, 61-8620) for 2 h at room temperature. […] All blots were quantified using raw images and ImageLab software (v6.0.1, BioRad): Files were imported and analyzed without further modifications. […] The quantification was exported from the analysis table and measurements of background adjusted band volumes where used for further normalization steps and graphical depiction. […]", "note": "Entries after “also recorded” stand apart in the source; their conditions may differ.", "data": [{"substance": "PP1c: recombinant catalytic subunit of PP1", "values": [{"measurement": "interaction of GAB2 with overexpressed GFP-14-3-3β", "setting": "Calyculin A 20 nM in cells, recombinant PP1c in lysate 1 h at 30 °C, PP1c-concentration-dependent, three independent experiments", "value": "decreased upon addition of recombinant PP1c in a PP1c–concentration-dependent manner; also recorded: less associated with endogenous GAB2"}, {"measurement": "interaction of GAB2 with GFP-14-3-3β, PP1c pre-inhibited", "setting": "recombinant PP1c mixed with equimolar Calyculin A for 5–10 min before addition to lysate", "value": "but not if recombinant PP1c was inhibited prior to treatment"}]}]}
